Reference: US5696151A, “Compounds useful for the inhibition of the replication of HIV-1 and HIV-1 mutants” (priority 1995, dated 1997)
Converted amounts (≈) assume the structure as drawn.

Experiments:
Format in all cases: cell-based
HIV-1(IIIB) = test: Inhibition of HIV-1 induced syncytium formation in CEM cells, wild type; settings: Human immunodeficiency virus 1, IIIB, CCRF-CEM, 96 h, Table 2B, WT = HIV-1(IIIB), day 4, averages of 2 to 3 independent experiments, read-out: Antiviral Activity of Comparative Compounds EC50, WT
Method in brief: (§1)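 Mutant strains were selected in culture for resistance to NNRTIs such as TSAO-m^3T, pyridinone L-697,661 or HEPT. Antiviral effect is inhibition of syncytium formation in infected CEM cells (~100 CCID50), assessed microscopically at day 4.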

HIV-1/100-Ile = test: Inhibition of HIV-1 induced syncytium formation in CEM cells, RT mutant 100-Ile; settings: Human immunodeficiency virus 1, CCRF-CEM, 96 h, Table 2B, day 4, averages of 2 to 3 independent experiments, read-out: Antiviral Activity of Comparative Compounds EC50, 100-Ile
Method in brief: as §1

HIV-1/103-Asn = test: Inhibition of HIV-1 induced syncytium formation in CEM cells, RT mutant 103-Asn; settings: Human immunodeficiency virus 1, CCRF-CEM, 96 h, Table 2B, day 4, averages of 2 to 3 independent experiments, read-out: Antiviral Activity of Comparative Compounds EC50, 103-Asn
Text: (§2) CEM cells were obtained from the American Tissue Cell Culture Collection (Rockville, Md.). HIV-1(IIIB) was originally obtained from the culture supernatant of persistently HIV-1-infected H9 cells and was provided by R. C. Gallo and M. Popovic (National Cancer Institute, National Institutes of Health, Bethesda, Md.). […] 67: 5353-5359 (1993); HIV-1/Lys-138 ("Lys-138") was selected for resistance against TSAO-m^3T as described in Balzarini et al, Virology 192: 246-253 (1993) and Balzarini et al, Proc. Nat. Acad. Sci. USA 90: 6952-6956 (1993); HIV-1/181-Cys ("181-Cys") was selected for resistance against pyridinone L-697,661 as described in Balzarini et al, Virology 192: 246-253 (1993); and HIV-1/188-His ("188-His") was selected for resistance against HEPT as described in Balzarini et al, Mol. Pharmocol. 44: 694-701 (1993). 188-His was then further converted to HIV-1/188-Leu "188-Leu") upon further passage in cell culture in the absence of the HEPT.
(§3) CEM cells were suspended at ≈300,000 cells per ml of culture medium and infected with approximately 100 CCID50 (CCID50 being the 50% cell culture infective dose) of HIV-1(IIIB) or one of the HIV-1 RT mutant strains described above. Then 100 μl of the infected cell suspensions was added to 200 μl microtiter plate wells containing 100 μl of appropriate serial (5-fold) dilutions of the test compounds. The inhibitory effect of the test compounds on HIV-1 induced syncytium formation in CEM cells was examined microscopically on day 4 post infection.

HIV-1/106-Ala = test: Inhibition of HIV-1 induced syncytium formation in CEM cells, RT mutant 106-Ala; settings: Human immunodeficiency virus 1, CCRF-CEM, 96 h, Table 2B, day 4, averages of 2 to 3 independent experiments, read-out: Antiviral Activity of Comparative Compounds EC50, 106-Ala
Method in brief: as §1

HIV-1/Lys-138 = test: Inhibition of HIV-1 induced syncytium formation in CEM cells, RT mutant 138-Lys; settings: Human immunodeficiency virus 1, CCRF-CEM, 96 h, Table 2B, day 4, averages of 2 to 3 independent experiments, read-out: Antiviral Activity of Comparative Compounds EC50, 138-Lys
Method in brief: as §1

HIV-1/181-Cys = test: Inhibition of HIV-1 induced syncytium formation in CEM cells, RT mutant 181-Cys; settings: Human immunodeficiency virus 1, CCRF-CEM, 96 h, Table 2B, day 4, averages of 2 to 3 independent experiments, read-out: Antiviral Activity of Comparative Compounds EC50, 181-Cys
Method in brief: as §1

HIV-1/188-Leu = test: Inhibition of HIV-1 induced syncytium formation in CEM cells, RT mutant 188-Leu; settings: Human immunodeficiency virus 1, CCRF-CEM, 96 h, Table 2B, day 4, averages of 2 to 3 independent experiments, read-out: Antiviral Activity of Comparative Compounds EC50, 188-Leu
Text: as §2, §3

in vitro = settings: human, cem cells, CC50 (50% cytostatic concentration), Table 2B; CEM cell proliferation; averages of 2 to 3 independent experiments
Method in brief: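 In CEM cells, the cytostatic value is the compound concentration giving 50% inhibition of cell proliferation. Parallel work used HIV-1(IIIB) and culture-selected resistant strains Lys-138, 181-Cys, 188-His and 188-Leu.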

| Compound | EC50 (HIV-1(IIIB)) | EC50 (HIV-1/100-Ile) | EC50 (HIV-1/103-Asn) | EC50 (HIV-1/106-Ala) | EC50 (HIV-1/Lys-138) | EC50 (HIV-1/181-Cys) | EC50 (HIV-1/188-Leu) | CC50 (in vitro) |
| --- | --- | --- | --- | --- | --- | --- | --- | --- |
| Cc1sccc1C(=S)Nc1ccc(Cl)c(OCC2CCCC2)c1 [Compound 28] | 0.029 µg/mL (≈ 0.0792 µM) | 0.22 µg/mL (≈ 0.601 µM) | 0.33 µg/mL (≈ 0.902 µM) | 0.23 µg/mL (≈ 0.628 µM) | 0.11 µg/mL (≈ 0.301 µM) | 0.5 µg/mL (≈ 1.37 µM) | > 2 µg/mL | 4.3 µg/mL (≈ 11.8 µM) |
| Cc1sccc1C(=S)Nc1ccc(Cl)c(OCC(C)(C)C)c1 [Compound 29] | 0.14 µg/mL (≈ 0.396 µM) | 0.5 µg/mL (≈ 1.41 µM) | 0.43 µg/mL (≈ 1.21 µM) | 0.5 µg/mL (≈ 1.41 µM) | 0.05 µg/mL (≈ 0.141 µM) | 0.55 µg/mL (≈ 1.55 µM) | > 2 µg/mL | 6.2 µg/mL (≈ 17.5 µM) |
| CC(C)=CCOc1cc(NC(=O)c2ccoc2C)ccc1Cl [Compound 30] | 0.015 µg/mL (≈ 0.0469 µM) | 1.27 µg/mL (≈ 3.97 µM) | 1.67 µg/mL (≈ 5.22 µM) | 0.34 µg/mL (≈ 1.06 µM) | 0.23 µg/mL (≈ 0.719 µM) | 0.65 µg/mL (≈ 2.03 µM) | > 2 µg/mL | > 100 µg/mL |
| Cc1sccc1C(=O)Nc1ccc(Cl)c(C(=O)OC(C)C)c1 [Compound 31] | 0.09 µg/mL (≈ 0.266 µM) | ≥ 2 µg/mL | ≥ 2 µg/mL | 0.6 µg/mL (≈ 1.78 µM) | 0.93 µg/mL (≈ 2.75 µM) | 0.73 µg/mL (≈ 2.16 µM) | > 2 µg/mL | 5.5 µg/mL (≈ 16.3 µM) |
| Cc1sccc1C(=O)Nc1ccc(Cl)c(C(=O)OC(C(C)C)C(C)C)c1 [Compound 32] | 0.16 µg/mL (≈ 0.406 µM) | ≥ 2 µg/mL | ≥ 2 µg/mL | ≥ 2 µg/mL | ≥ 2 µg/mL | 0.95 µg/mL (≈ 2.41 µM) | > 2 µg/mL | 4.1 µg/mL (≈ 10.4 µM) |
| Cc1sccc1C(=O)Nc1ccc(Cl)c(OCCC(C)C)c1 [Compound 33] | 0.063 µg/mL (≈ 0.186 µM) | 0.95 µg/mL (≈ 2.81 µM) | 1 µg/mL (≈ 2.96 µM) | 0.65 µg/mL (≈ 1.92 µM) | 0.62 µg/mL (≈ 1.84 µM) | 1.07 µg/mL (≈ 3.17 µM) | > 2 µg/mL | 7 µg/mL (≈ 20.7 µM) |
| CC=CCSc1cc(NC(=O)c2ccsc2C)ccc1Cl [Compound 34] | 0.08 µg/mL (≈ 0.237 µM) | 0.65 µg/mL (≈ 1.92 µM) | 0.8 µg/mL (≈ 2.37 µM) | 0.28 µg/mL (≈ 0.829 µM) | 0.5 µg/mL (≈ 1.48 µM) | 1.2 µg/mL (≈ 3.55 µM) | > 2 µg/mL | 4.8 µg/mL (≈ 14.2 µM) |
| CC=CCSc1cc(NC(=O)c2ccoc2C)ccc1Cl [Compound 35] | 0.16 µg/mL (≈ 0.497 µM) | 1.5 µg/mL (≈ 4.66 µM) | 0.55 µg/mL (≈ 1.71 µM) | 0.8 µg/mL (≈ 2.49 µM) | 0.7 µg/mL (≈ 2.18 µM) | 1.6 µg/mL (≈ 4.97 µM) | > 2 µg/mL | 5.9 µg/mL (≈ 18.3 µM) |
| CSc1sccc1C(=O)Nc1ccc(Cl)c(C=NOC(C)(C)C)c1 [Compound 36] | 0.18 µg/mL (≈ 0.47 µM) | 1.23 µg/mL (≈ 3.21 µM) | 1.2 µg/mL (≈ 3.13 µM) | 0.85 µg/mL (≈ 2.22 µM) | 0.85 µg/mL (≈ 2.22 µM) | 1.6 µg/mL (≈ 4.18 µM) | > 2 µg/mL | 7.8 µg/mL (≈ 20.4 µM) |
| Cc1occc1C(=O)Nc1ccc(Cl)c(OCCC(C)C)c1 [Compound 37] | 0.16 µg/mL (≈ 0.497 µM) | ≥ 2 µg/mL | ≥ 2 µg/mL | 1.3 µg/mL (≈ 4.04 µM) | 1.25 µg/mL (≈ 3.88 µM) | 1.73 µg/mL (≈ 5.38 µM) | > 2 µg/mL | 5 µg/mL (≈ 15.5 µM) |
| Cc1c(C(=O)Nc2ccc(Cl)c(C=NOC(C)(C)C)c2)ccn1C [Compound 38] | 0.08 µg/mL (≈ 0.23 µM) | ≥ 2 µg/mL | ≥ 2 µg/mL | 0.7 µg/mL (≈ 2.01 µM) | ≥ 2 µg/mL | > 2 µg/mL | > 2 µg/mL | 5.5 µg/mL (≈ 15.8 µM) |
| Cc1occc1C(=S)Nc1ccc(Cl)c(OCC(C)(C)C)c1 [Compound 39] | 0.15 µg/mL (≈ 0.444 µM) | 1.4 µg/mL (≈ 4.14 µM) | 0.7 µg/mL (≈ 2.07 µM) | > 2 µg/mL | 0.5 µg/mL (≈ 1.48 µM) | ≥ 2 µg/mL | > 2 µg/mL | 4.1 µg/mL (≈ 12.1 µM) |
| CC=CCOc1cc(NC(=O)c2ccoc2C)ccc1Cl [Compound 40] | 0.24 µg/mL (≈ 0.785 µM) | 1.4 µg/mL (≈ 4.58 µM) | ≥ 2 µg/mL | > 2 µg/mL | 1.2 µg/mL (≈ 3.92 µM) | > 2 µg/mL | > 2 µg/mL | 5.8 µg/mL (≈ 19 µM) |
